Measurements as given in US9718879B2, “Methods of treating pain by inhibition of VGF activity” (IMPERIAL INNOVATIONS LTD., priority 2012, dated 2017).
“Also recorded” adds a separate entry of the source. No end group written: not given here.

Columns and labels:
[1] = tested on: ipsilateral hind limb mechanical sensitivity; test: Intraplantar injection of LQEQ-19, sensitivity to mechanical stimuli; assay type: in vivo, rat; conditions: 275 microgram
From the text: (§1) On the other hand, another VGF-derived peptide LQEQ-19 seems to have a direct role on DRG neurons. […] In summary, there are at least three active VGF peptides involved in pain pathways, i.e., TLQP-62, TLQP-21 and LQEQ-19, and four types of cells, namely, spinal microglia, macrophage, nociceptive DRG neurons, and dorsal horn neurons, which respond to these peptides. In this project we will focus on the putative role of VGF peptides in regulating the activity/excitability of DRG neurons and the novel VGF-induced signaling pathway in microglia/macrophage.

[2] = tested on: nociceptors (C-fibre component of compound action potentials in dorsal roots); test: Compound action potential recordings in dorsal roots after application to DRG; conditions: application of LQEQ-19 to DRG, in vitro
From the text: (A) Typical average trace of 12 compound action potential recordings. The record was divided into 3 components according to the conduction velocities of Aβ fibres (6.2 m/s-2.1 m/s), Ad fibres (2.1 m/s-0.8 m/s) and C fibres (0.8 m/s-0.1 m/s) fibres. (B) Maximum amplitudes of Aβ, Ad and C components of compound action potentials. (C) Area under the curve of Aβ, Ad and C compound action potential. Bold line on the X axis indicates LQEQ-19 application
as §1

pain behaviour = conditions: in vivo; cited from earlier work
[3] = tested on: p38 MAP kinase in spinal microglia and BV-2 microglial cell line; conditions: cited from earlier work
[4] = tested on: p38 MAP kinase in spinal microglia; conditions: mice injected intrathecally; cited from earlier work
gC1qR = molecular target: T1, gC1qR (Rattus norvegicus, UniProt O35796); test: Receptor identification by chemical cross-linking / monomeric avidin column and LC-MS/MS; assay type: binding; conditions: rat brain / spinal cord membrane fractions; ~30 kDa band identified by LC-MS/MS
T1 construct: from tissue; host or cells: membrane fractions of rat brain (P4) and of 6 weeks old rat brain and spinal cord
T1 sequence (O35796 72-279): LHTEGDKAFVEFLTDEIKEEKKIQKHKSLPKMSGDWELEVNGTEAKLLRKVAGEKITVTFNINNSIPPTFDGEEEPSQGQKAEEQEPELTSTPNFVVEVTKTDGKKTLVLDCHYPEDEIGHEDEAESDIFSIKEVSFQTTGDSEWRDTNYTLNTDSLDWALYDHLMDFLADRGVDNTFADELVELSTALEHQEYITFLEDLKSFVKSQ
Experimental: FIG. 3A-F gC1qR is the receptor for TLQP-21. a, Biotinylated TLQP-21 was conjugated to Sulfo-EMCS cross-linker, and applied to membrane fractions of 6 weeks old rat brain and spinal cord for cross-linking (boric acid buffer, pH 8, with 150 mM NaCl, 3 hours incubation on ice). The reaction was terminated using 50 mM Tris buffer, and samples were ethanol precipitated and resolved using Tricine-PAGE and visualised by Western blot analysis by streptavidin-horse radish peroxidase. […] C, The ˜30 kDa band was analysed by LC-MS/MS Orbitrap following trypsinisation.
Ccl11 has been linked to inflammation^23, while Cxcl9 is known as a natural antagonist to Ccl11 receptor CCR3^24. […] The membrane fractions of rat brain was incubated with the crosslinker-conjugated TLQP-21, and analysed by Tricine-PAGE and Western blotting using Streptavidin-HRP for the biotin tag on TLQP-21. […] The membrane fraction of rat brain was applied to a TLQP-21 attached column, and the elutions were analysed on SDS-PAGE and silver staining for direct comparison to the negative control (without TLQP-21). […] The ˜30 kDa bands from both gels were cut out, trypsinised and analysed using LC-MS/MS Orbitrap. […]
To elucidate the identity of the ˜30 kDa protein, which were apparent in two different experiments, the protein band from the monomeric avidin experiment was analysed using LC-MS/MS Orbitrap. […]

paw withdrawal threshold = test: Intraplantar (hind paw) injection of peptide-treated macrophages, Von Frey paw withdrawal threshold; assay type: in vivo, rat
Experimental: FIG. 6A-C Intraplantar injection of macrophages stimulated with TLQP-21 can evoke mechanical hypersensitivity, and anti-gC1qR antibody reverses mechanical hypersensitivity in partial sciatic nerve ligation (PSNL) model. a, 80,000 macrophages treated with 100 nM TLQP-21 (closed circle) and scrambled TLQP-21 (open circle) for 24 hours have been intraplantarly injected into 3 weeks old male rats. Mechanical sensitivity was examined by electrical Von Frey test. […] C, Time course of paw withdrawal thresholds to Von Frey mechanical stimulation on an left hind paw of PSNL model rats. The left sciatic nerve was exposed, tied with non-absorbable silk thread, and wrapped loosely with a oxidized regenerated cellulose previously soaked in 200 μl of PBS (open triangle) or PBS containing 25 μg of anti-gC1qR (closed circle) or control antibodies (open circle). […] Mean±s.e.m. *P<0.05 vs controls.
Macrophages were treated with either 100 nM TLQP-21 or 100 nM scrambled TLQP-21 for 24 hours in culture. Following wash with PBS, macrophages (35,000 cells in 50 μl) were injected into the left hind paw. Ipsilateral paw withdrawal latency to Von Frey mechanical stimulation was measured at 1, 2, and 3 days after injection (n=9).
We hypothesised that macrophages stimulated by TLQP-21 affects sensory neurons and alter the mechanical sensitivity. We tested this hypothesis by measuring paw withdrawal thresholds in normal rats after hind paw injection of cultured macrophages that had been pre-treated with either TLQP-21 or ScrTLQP-21 for 24 hours. […] This effect lasted for 48 hours after injection. […] We then examined if in vivo application of the neutralising gC1qR antibody can prevent or delay development of neuropathic pain in PSNL model rats. The gC1qR antibody was applied to the site next to nerve ligation, in a cellulose membrane soaked form.

cultured brain microglia = test: Intracellular Ca2+ increase in cultured brain microglia; assay type: cell-based, rat; conditions: 100 nM
Experimental: (§2) Cell images show the Fluo-4 fluorescence associated with different time points during the recording.
(§3) A possible explanation for the absence of a Ca2+ response from a second application of TLQP-21 is that there is a biological de-sensitisation occurring such as phosphorylation of the receptor. It is also possible that this could be due to depletion of Ca2+ in internal stores such as ER, however, this is less likely because the de-sensitisation occurs even with sufficient time (2 hours) to recover and replenish the Ca2+, and ATP treatment gave an increase in intracellular Ca2+ levels. Actually this de-sensitisation by TLQP-21 has also been observed in cerebellar granule cells.
Ccl11 has been linked to inflammation^23, while Cxcl9 is known as a natural antagonist to Ccl11 receptor CCR3^24. We then used Sulfo-EMCS-conjugated TLQP-21 to purify and identify receptor(s) for TLQP-21. […] The membrane fractions of rat brain was incubated with the crosslinker-conjugated TLQP-21, and analysed by Tricine-PAGE and Western blotting using Streptavidin-HRP for the biotin tag on TLQP-21. […] The membrane fraction of rat brain was applied to a TLQP-21 attached column, and the elutions were analysed on SDS-PAGE and silver staining for direct comparison to the negative control (without TLQP-21). […] The ˜30 kDa bands from both gels were cut out, trypsinised and analysed using LC-MS/MS Orbitrap.

[5] = tested on: chemokines Ccl11 and Cxcl9 in microglia; test: PCR array of chemokine expression in microglia upon TLQP-21 stimulation; assay type: cell-based
[6] = tested on: cultured bone marrow-derived macrophages; test: TLQP-21-elicited intracellular Ca2+ increase in cultured macrophages (Fluo-4); assay type: cell-based; conditions: for increase in intracellular Ca2+ levels: 100 nM peptide, cultured macrophages, Fluo-4
Experimental: as §2, §3
These peptides were either commercially sourced or provided by Neusentis/Pfizer. The effects of VGF peptides on sensory neurons was analysed using whole-cell current-clamp recordings on cultured DRG neurons. Responses of cells to depolarising current pulses will be analysed before and after superfusion of peptides and their efficacy and potency established. The nociceptive phenotype of the cells was confirmed by superfusing capsaicin to the cells at the end of the recordings, and analysing the action potential and current threshold of the cells. Based on our pilot data with LQEQ-19, we expected that some of these peptides will increase the activity of nociceptive neurons. The activation of microglia and macrophage was studied on two parameters, intracellular Ca^2+ increase and P38 MAP kinase phosphorylation. The phosphorylation levels of P38 MAP kinase was investigated as shown before^20. Once we identified peptides capable of activating sensory neurons and/or microglia/macrophage, confirmed the specific effects using scrambled peptides.

spinal cord slices = conditions: cited from earlier work
[7] = tested on: mechanical and cold sensitivity; conditions: intrathecal application to rats; cited from earlier work
hippocampal neurons = conditions: cited from earlier work

Q: For “LQEQEELENYIEHVLLHRP [VGF-derived peptide]”, which “time of development of hypersensitivity after injection” value [1] is on record?
A: Its value is 10 min.

Q: What about the “hypersensitivity to mechanical stimuli” value ([1]; ipsilateral hind limb, p≦0.001 vs vehicle) of the same molecule?
A: The value was “associated with a hypersensitivity to mechanical stimuli; also recorded: causes a mechanical hypersensitivity in vivo”.

Q: What about the “C-fibre component of compound action potentials (amplitude, area under the curve); sensitisation of nociceptors” value [2] of the same molecule?
A: The value was “sensitises nociceptors in vitro; also recorded: significantly increases both the amplitude and the area under the curve”.

Q: And the “pain behaviour in the formalin test” value (pain behaviour)?
A: The value was “enhances pain behaviour”.

Q: And the “p38 MAP kinase phosphorylation” value [3]?
A: Its value is “causes P38 MAP kinase phosphorylation; also recorded: induces p38 MAP kinase phosphorylation”.

Q: What about the “phosphorylated p38 MAP kinase in spinal microglia” value [4] of the same molecule?
A: Its value is “increase of phosphorylated p38 MAP kinase”.

Q: With “Thr-Leu-Gln-Pro-Pro-Ala-Ser-Ser-Arg-Arg-Arg-His-Phe-His-His-Ala-Leu-Pro-Pro-Ala-Arg [TLQP-21]” as the molecule, how does the “binding to the receptor gC1qR” value (gC1qR) read?
A: Its value is “co-purified with TLQP-21; also recorded: binds to the receptor gC1qR”.

Q: And the “duration of the effect on paw withdrawal threshold after injection” value (paw withdrawal threshold; injection of macrophages stimulated by TLQP-21)?
A: The value was 48 h.

Q: And the tactile allodynia (paw withdrawal threshold; macrophages treated with 100 nM peptide 24 hours, 35,000 cells in 50 μl into left hind paw, 1, 2, 3 days, n=9)?
A: The tactile allodynia was “produced tactile allodynia”.

Q: What about the paw withdrawal threshold (paw withdrawal threshold; macrophages treated with 100 nM peptide for 24 hours, 80,000 cells injected intraplantarly, Von Frey) of the same molecule?
A: The paw withdrawal threshold was “caused reduction of paw withdrawal thresholds at 24 and 48 hours after injection; also recorded: decreased markedly”.

Q: And the “increase in intracellular Ca2+” value (cultured brain microglia)?
A: Its value is “causes an increase in intracellular Ca2+; also recorded: responded to TLQP-21 similarly to macrophages”.

Q: And the Ccl11 upregulated [5]?
A: Its Ccl11 upregulated is 2.78 fold.

Q: What about the Cxcl9 downregulated [5] of the same molecule?
A: Its Cxcl9 downregulated is 2.28 fold.

Q: And the “de-sensitisation to subsequent TLQP-21 stimulation” value ([6]; 100 nM TLQP-21, macrophages, ATP response not desensitised)?
A: Its value is “densensitises macrophage to further TLQP-21 stimulation; also recorded: induced de-sensitisation to subsequent TLQP-21 treatments”.

Q: What about the “increase in intracellular Ca2+ levels” value [6] of the same molecule?
A: The value was “elicits an increase in intracellular Ca2+ levels; also recorded: drives an increase in intracellular Ca2+; also recorded: causes intracellular Ca^2+ increase; also recorded: caused transient increase in intracellular Ca2+ levels”.

Q: And the “intracellular Ca2+ increase when extracellular Ca2+ is depleted” value ([6]; macrophages, extracellular Ca2+ depleted)?
A: The value was “still observed”.

Q: For “cross-linker-conjugated TLQP-21: TLQP-21 with N-terminal biotin and extra C-terminal cysteine, conjugated to Sulfo-EMCS cross-linker (TLQPPASSRRRHFHHALPPARC; cyclised or stapled)”, which “increase in intracellular Ca2+ levels” value [6] is on record?
A: The value was “able to induce an increase in intracellular Ca2+ levels similar to the wild type TLQP-21”.

B1: Thr-Leu-Gln-Pro-Pro-Ala-Ser-Ser-Arg-Arg-Arg-His-Phe-His-His-Ala-Leu-Pro-Pro-Ala-Arg-His-His-Pro-Asp-Leu-Glu-Ala-Gln-Ala-Arg-Arg-Ala-Gln-Glu-Glu-Ala-Asp-Ala-Glu-Glu-Arg-Arg-Leu-Gln-Glu-Gln-Glu-Glu-Leu- … (peptide)
chain: TLQPPASSRRRHFHHALPPARHHPDLEAQARRAQEEADAEERRLQEQEELENYIEHVLLHRP
modifications: TLQP-62 peptide from VGF
notes: VGF-derived peptide
Q: Which results are given for B1?
A: frequency of spontaneous excitatory post synaptic currents (spinal cord slices): increase in the frequency of spontaneous excitatory post synaptic currents; pain behaviour (mechanical and cold allodynia) [7]: induces pain behaviour (cold and mechanical hypersensitivity); also recorded: long-lasting mechanical and cold behavioural allodynia; synaptic activity (hippocampal neurons): increase synaptic activity
